Data on four compounds can be found in publication PMC2996262 (Journal of medicinal chemistry, 2010).

One assay relates to MDR viruses. Briefly: Antiviral assays, range over MDR viruses. Type of assay: cell-based, HIV-1.
The subject of a further assay is wild-type viruses. Briefly: Antiviral assays, range over wild-type viruses. Type of assay: cell-based, HIV-1. To be noted: Human immunodeficiency virus 1, read-out: EC50 against wild-type viruses.

In the case of `CC(C)CN(C[C@@H](O)[C@H](Cc1ccccc1)NC(=O)[C@@H]1CN(c2ccccc2)C(=O)O1)S(=O)(=O)c1ccc2ncsc2c1` [15d], the “loss of potency against MDR viruses” value in the assay with MDR viruses (relative to wild-type viruses) is reported as “about 6 fold”. The EC50 with wild-type viruses lay in the range of 14 to 41 nM. For `CC(=O)c1cccc(N2C[C@@H](C(=O)N[C@@H](Cc3ccccc3)[C@H](O)CN(CC(C)C)S(=O)(=O)c3ccc4ncsc4c3)OC2=O)c1` [26d], the EC50 in the assay on wild-type viruses was in the range of 4.2 to 10.1 nM. The same measure, in the same setting: with `CC(C)CN(C[C@@H](O)[C@H](Cc1ccccc1)NC(=O)[C@@H]1CN(c2cccc(S(C)(=O)=O)c2)C(=O)O1)S(=O)(=O)c1ccc2ncsc2c1` [27d] the figure was 3.5 to 5.7 nM. Regarding `COC(=O)Nc1cccc(N2C[C@@H](C(=O)N[C@@H](Cc3ccccc3)[C@H](O)CN(CC(C)C)S(=O)(=O)c3ccc4ncsc4c3)OC2=O)c1` [31d], in the assay on MDR viruses (compared with LPV), the “antiviral potency against the MDR HIV-1 variants, better than LPV” value came to 3 fold. For the same compound, the EC50 in the assay with wild-type viruses fell in the range of 1.2 to 3 nM.

In general, EC50 refers to the concentration giving half of the maximal effect.
